Assay: xn = mol fraction of the nth substance listed
Conditions: 101 kPa, Liquid, Pycnometric method

NC=O [formamide] + OCCO
mass density [kg/m3]
Conditions | 293.15 K | 298.15 K | 303.15 K | 308.15 K | 313.15 K | 318.15 K
x1 = 0.0612 | 1114.13 | 1110.54 | 1106.94 | 1103.38 | 1099.81 | 1096.21
x1 = 0.1204 | 1114.54 | 1110.93 | 1107.31 | 1103.66 | 1100.06 | 1096.44
x1 = 0.1859 | 1115.04 | 1111.39 | 1107.74 | 1104.07 | 1100.42 | 1096.73
x1 = 0.2524 | 1115.55 | 1111.84 | 1108.13 | 1104.47 | 1100.77 | 1097.09
x1 = 0.3302 | 1116.11 | 1112.36 | 1108.66 | 1104.92 | 1101.18 | 1097.46
x1 = 0.3926 | 1116.61 | 1112.86 | 1109.1 | 1105.36 | 1101.62 | 1097.88
x1 = 0.4517 | 1117.2 | 1113.44 | 1109.64 | 1105.85 | 1102.08 | 1098.29
x1 = 0.5102 | 1117.85 | 1114.01 | 1110.17 | 1106.38 | 1102.55 | 1098.74
x1 = 0.5643 | 1118.48 | 1114.66 | 1110.81 | 1106.95 | 1103.13 | 1099.29
x1 = 0.6101 | 1119.18 | 1115.31 | 1111.46 | 1107.6 | 1103.72 | 1099.89
x1 = 0.6596 | 1120.09 | 1116.22 | 1112.36 | 1108.46 | 1104.59 | 1100.7
x1 = 0.7454 | 1122.11 | 1118.19 | 1114.23 | 1110.28 | 1106.35 | 1102.42
x1 = 0.8195 | 1124.35 | 1120.37 | 1116.38 | 1112.38 | 1108.42 | 1104.46
x1 = 0.8883 | 1127.02 | 1122.99 | 1119 | 1115.01 | 1110.98 | 1106.96
x1 = 0.9491 | 1130.03 | 1125.99 | 1121.95 | 1117.89 | 1113.86 | 1109.79
x1 = 1 | 1133 | 1129 | 1125 | 1121 | 1117 | 1113
